Values belong to the compound of their own block, whether it stands above or below them.
How the values were obtained:
[1] = system: rabbits, dogs and pigs; conditions: dermal or oral administration; published studies; cited from earlier work
[2] = system: rhesus monkeys; conditions: daily oral or dermal treatment for 9 to 18 months; cited from earlier work
[3] = published studies; cited from earlier work
[4] = system: minipigs; assay: Ocular effects of dermal DMSO, indirect ophthalmoscopy, minipigs; assay type: in vivo; conditions: multiple-daily dermal application for 52 weeks
[5] = system: rats; assay: Fertility studies of dermally applied DMSO; assay type: in vivo
Source text: Studies conducted in rats found no effect of dermally applied DMSO on fertility, reproductive performance, or offspring performance.

[6] = system: rats; assay: Ocular effects of dermal DMSO, indirect ophthalmoscopy, rats; assay type: in vivo; conditions: multiple-daily dermal application for 26 weeks
[7] = major diclofenac metabolite; cited from earlier work
[8] = system: rats; conditions: cited from earlier work
[9] = case report in the literature; cited from earlier work
[10] = system: patients; conditions: cited from earlier work
[11] = bacterial reverse mutation, mouse lymphoma point mutation, CHO chromosomal aberration in vitro, in vivo rat bone marrow chromosomal aberration; cited from earlier work
[12] = oral diclofenac sodium; cited from earlier work
[13] = system: patients with osteoarthritis; conditions: combination vs. oral diclofenac alone
[14] = in vivo; cited from earlier work
[15] = system: hairless mice; conditions: topical application at doses up to 0.035%; cited from earlier work
[16] = system: mice; conditions: doses up to 20 mg/kg/day (0.6-fold the MRHD), maternal and fetal toxicity induced; cited from earlier work
[17] = system: albino mice; conditions: daily topical applications for two years at concentrations up to 0.035%; cited from earlier work
[18] = system: rats; conditions: dietary constituent for 2 years, doses up to 2 mg/kg/day; cited from earlier work
[19] = system: male and female rats; conditions: doses up to 4 mg/kg/day (1.4-fold of the MRHD); cited from earlier work
[20] = system: rabbits; conditions: doses up to 10 mg/kg/day (approximately […] the MRHD); cited from earlier work
[21] = system: rats; conditions: doses up to 10 mg/kg/day (approximately 0.6-fold the MRHD); cited from earlier work
[22] = system: mice; conditions: dietary constituent for 2 years, doses up to 2 mg/kg/day; cited from earlier work

fertility, reproductive performance, or offspring performance [5]: no effect
Structure (SMILES): C[S+](C)[O-] [DMSO, dimethyl sulfoxide]
ocular findings by slit-lamp biomicroscopy [1]: refractive changes of lens curvature and cortical fibers indicative of myopic changes and/or incidences of lens opacity or discoloration | ocular abnormalities [2]: no ocular abnormalities were observed | potential teratogenicity [3]: equivocal | ocular adverse effects by indirect ophthalmoscopy [4]: No adverse effects were observed | ocular adverse effects by indirect ophthalmoscopy [6]: No adverse effects were observed

Structure (SMILES): O=C(O)Cc1ccccc1Nc1c(Cl)cc(O)cc1Cl [4′-hydroxy-diclofenac]
pharmacologic activity [7]: very weak pharmacologic activity

Structure (SMILES): O=C(O)Cc1ccccc1Nc1c(Cl)cccc1Cl [diclofenac]
effects of maternal exposure on labor and delivery [8]: increased the incidence of dystocia, delayed parturition, and decreased offspring survival | detection in breast milk [9]: can be detected at low levels | patients with marked transaminase elevations whose abnormal tests occurred during the first 2 months of therapy ([10]; all trials): 42 of the 51 patients | borderline (less than 3 times ULN) or greater elevations of transaminases, patients ([10]; clinical trials of indications other than acute pain): about 15% | meaningful elevations of ALT and/or AST, patients ([10]; open-label controlled trial, 3,700 patients treated for 2 to 6 months): about 4% | marked elevations (>8 times the ULN) of ALT and/or AST, patients ([10]; open-label controlled trial, 3,700 patients): about 1% | incidence of borderline, moderate and marked elevations of ALT or AST compared to other NSAIDs ([10]; open-label study): higher incidence | mutagenicity / clastogenicity [11]: not mutagenic or clastogenic | binding of diclofenac to protein when administered with aspirin [12]: reduced | clearance of free diclofenac when administered with aspirin [12]: not altered | abnormal creatinine [13]: 7% | abnormal hemoglobin [13]: 9% | abnormal urea [13]: 12% | rate of rectal hemorrhage [13]: less than 1% | free unchanged diclofenac excreted in the urine [14]: Little or no

Structure (SMILES): O=C([O-])Cc1ccccc1Nc1c(Cl)cccc1Cl.[Na+] [diclofenac sodium]
time of onset of tumors [15]: earlier median time of onset of tumors | teratogenicity [16]: did not produce teratogenicity | neoplasm incidence [17]: did not increase neoplasm incidence | tumor incidence [18]: no significant increases in tumor incidence | fertility [19]: did not affect fertility | teratogenicity [20]: did not produce teratogenicity | teratogenicity [21]: did not produce teratogenicity | tumor incidence [22]: no significant increases in tumor incidence

From US20160074351A1, “DISPENSING SYSTEM” (HZNP Limited, priority 2012, published 2016)
